Reference: PMC10791743, “Selective CK1α degraders exert antiproliferative activity against a broad range of human cancer cell lines” (Nature Communications, 2024)

Assays:
Format in all cases: in vitro ADME
[1] = Metabolic stability in cryopreserved hepatocytes, mouse; conditions: 1 μM; for Remaining: Pooled Mouse Hepatocytes
Description: (§1) page 34: UHPLC-MS/MS System: Chromatographic separation was performed on an Acquity UPLC BEH […] with 6500+ Qtrap system. […] software suite. The UPLC column was maintained at 55 °C. Mobile phase A was 0.1% formic acid in MilliQ H2O and Mobile phase B was 0.1% formic acid in acetonitrile. The flow rate was 0.9 […] The mass spectrometer was operated in positive-ion mode with electrospray ionization. MRM transition m/z […] plasma stability and plasma protein binding. The following MS parameters were employed for analyte measurements: ion spray voltage 5 kV, temperature 550 °C, gas 1 and gas 2 were 60, entrance potential (EP): 10 V, declustering potential (DP): 50 V, collision energy (CE): 27 V, and collision cell exit potential (CXP): 16 V. Metabolic Stability in mouse and human cryopreserved hepatocytes. 10 mM test compounds were provided by Compound Sample Group. Diluted 10 mM test compounds and 30 mM positive control compounds (7-ethoxycoumarin) to 1 mM and 3 mM with DMSO in 96-well plates. Diluted 1 mM test compounds and 3 mM positive control compounds to 100 μM and 300 μM dosing solutions with ACN. Cryopreserved cells were thawed, isolated and suspended in Incubation Medium, then diluted with pre-warmed Incubation Medium to 0.5 × 10^6cells/mL. Added 198 μL of pre-warmed cell suspensions in 96 -well plates. Transferred 125 μL of stop solution (acetonitrile containing 200 ng/mL tolbutamide and 200 ng/mL labetalol as internal standards) in a set of pre- labeled 96-well plates. Spike d 2 μL dosing solution to each well of 96 -well plates in duplicates. For T0 Samples, mix ed to achieve a homogenous suspension for about 1 min, then immediately transferred 25 μL of each sample into well containing 125 μL of ice -cold stop solution followed by mixing. Incubated all plates at 37°C in a 95% humidified incubator at 5% CO 2 to start the reactions page 35: with constant shaking at about 600 rpm. At 15, 30, 60 and 90 min, mixed samples and then transferred 25 μL of each sample at each time point to well containing 125 μL of ice -cold stop solution followed by mixing. Medium Control (MC) sample plates (labeled as T0-MC and T90- MC) were prepared at T0 and T90 by adding the same components to each well except cell suspensions. At each corresponding time point, stopped the reactions by removing the plates from incubator and mixing with 125 μL of ice-cold stop solution. Vortexed the plates immediately on a plate shaker at 500 rpm for 10 minutes. Then, centrifuge d all sample plates at 3220 x g for 20 min at 4°C. After centrifugation, 80 μL/well of supernatant in the sample plates were transferred to another set of pre-labeled 96-well plates which containing 240 μL of ultra pure water according to the plate map. Analytical plates were sealed and stored at 4°C until LC-MS/MS analysis. Thawing Medium: Williams' Medium E containing 5% fetal bovine serum and 30% Perc oll solution and other supplements. Incubation Medium: Williams' Medium E (no phenol red) containing 2 mM L-Glutamine and 25 mM HEPES. Stop Solution: Acetonitrile containing 200 ng/mL tolbutamide and labetalol as internal standards. Dilution Solution: Ultra-pure water. The remaining percents of test articles after incubation were calculated by the follow equations: Equation ( 6): Use equation of first order kinetics [NT] […] The data was […] concatenated with a reversed decoy database for evaluating False Discovery Rate (FDR). […]

[2] = Metabolic stability in cryopreserved hepatocytes, human; conditions: Pooled Human Hepatocytes, 1 μM
Description: as §1

[3] = Medium control without cells (hepatocyte stability assay); conditions: 90 min, 1 μM

**Q.** Which results are given for `O=C1CCC(N2Cc3cc(Nc4noc5ccccc45)ccc3C2=O)C(=O)N1` (stereo not shown) [SJ001043149-3]?
**A.** k ([1]; Pooled Mouse Hepatocytes (first result line, species inferred from Ln(Remaining))): 0.0013 min⁻¹; Remaining ([1]; 15 min): 83.3%; Remaining ([1]; 30 min): 86.1%; Remaining ([1]; 60 min): 89.6%; Remaining ([1]; 90 min): 81.4%; Remaining ([2]; 15 min): 110.2%; Remaining ([2]; 30 min): 88.9%; Remaining ([2]; 60 min): 93.8%; Remaining ([2]; 90 min): 108.9%; Remaining [3]: 94.5%
